Experimental data from ChEMBL document CHEMBL5150077, “Identification of TUL01101: A Novel Potent and Selective JAK1 Inhibitor for the Treatment of Rheumatoid Arthritis” (J Med Chem, 2022).

Columns and labels:
Mus musculus [1] = assay: Antiarthritic activity in collagen-induced rheumatoid arthritis DBA/1 mouse model assessed as reduction in incidence rate at 15 mg/kg, po BID administered for 14 days starting from 7 days before immunization to 21 days after immunization and measured on day 34 post immunization; format: functional; parameters: scale not given: the % may be the effect or the level left; conditions: time 14 day
Mus musculus [2] = assay: Antiarthritic activity in collagen-induced rheumatoid arthritis DBA/1 mouse model assessed as reduction in incidence rate at 15 mg/kg, po BID administered for 14 days starting from 7 days before immunization to 21 days after immunization and measured on day 41 post immunization; format: functional; parameters: scale not given: the % may be the effect or the level left; conditions: time 14 day
[3] = target: ALK tyrosine kinase receptor (Homo sapiens) (UniProt Q9UM73); assay: Inhibition of human ALK assessed as residual activity at 30 uM relative to control
[4] = target: Serine/threonine-protein kinase MAK (Homo sapiens) (UniProt P20794); assay: Inhibition of human MAK assessed as residual activity at 30 uM relative to control
[5] = target: 5'-AMP-activated protein kinase catalytic subunit alpha-1 (Homo sapiens) (UniProt Q13131); assay: Inhibition of human AMPKalpha1 assessed as residual activity at 30 uM relative to control
[6] = target: Interleukin-1 receptor-associated kinase 4 (Homo sapiens) (UniProt Q9NWZ3); assay: Inhibition of human IRAK4 assessed as residual activity at 30 uM relative to control
Rattus norvegicus [7] = assay: Antiarthritic activity in adjuvant-induced arthritis rat model assessed as clinical score at 30 mg/kg, po administered twice a day for 14 days starting from day 13 to 27 post immunization and measured every 3 days a week; format: functional; conditions: time 14 day
[8] = target: Ephrin type-A receptor 2 (Homo sapiens) (UniProt P29317); assay: Inhibition of human EPHA2 assessed as residual activity at 30 uM relative to control
Sequence of Ephrin type-A receptor 2 (Homo sapiens) (P29317 whole entry): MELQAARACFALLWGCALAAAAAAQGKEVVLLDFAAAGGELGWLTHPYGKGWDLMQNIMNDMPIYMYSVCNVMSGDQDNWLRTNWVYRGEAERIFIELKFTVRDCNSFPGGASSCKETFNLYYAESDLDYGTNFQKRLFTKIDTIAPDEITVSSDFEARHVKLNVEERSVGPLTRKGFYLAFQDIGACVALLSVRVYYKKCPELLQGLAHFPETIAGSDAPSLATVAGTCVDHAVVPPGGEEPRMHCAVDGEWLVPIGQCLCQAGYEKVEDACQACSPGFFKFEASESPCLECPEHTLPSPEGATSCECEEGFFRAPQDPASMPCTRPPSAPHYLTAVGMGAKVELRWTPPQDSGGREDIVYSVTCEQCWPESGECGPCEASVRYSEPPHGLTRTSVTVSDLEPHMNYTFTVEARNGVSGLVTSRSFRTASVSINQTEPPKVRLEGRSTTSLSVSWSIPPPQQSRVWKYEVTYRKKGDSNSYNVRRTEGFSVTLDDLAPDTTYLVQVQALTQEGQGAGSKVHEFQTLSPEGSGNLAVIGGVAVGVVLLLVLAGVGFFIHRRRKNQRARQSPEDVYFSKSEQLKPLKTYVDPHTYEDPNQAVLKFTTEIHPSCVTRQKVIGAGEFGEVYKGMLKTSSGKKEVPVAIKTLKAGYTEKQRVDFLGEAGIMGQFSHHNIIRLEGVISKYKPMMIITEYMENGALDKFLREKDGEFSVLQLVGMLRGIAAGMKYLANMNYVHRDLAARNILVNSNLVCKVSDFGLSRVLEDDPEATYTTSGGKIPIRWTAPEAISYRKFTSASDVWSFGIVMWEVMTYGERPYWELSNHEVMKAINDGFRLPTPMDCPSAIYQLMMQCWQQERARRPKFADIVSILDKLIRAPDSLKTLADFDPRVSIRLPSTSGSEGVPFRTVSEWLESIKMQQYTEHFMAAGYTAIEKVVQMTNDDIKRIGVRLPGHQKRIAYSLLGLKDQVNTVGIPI

in vivo [9] = conditions: Sprague-Dawley, rat, po, 10 mg/kg
[10] = target: Mitogen-activated protein kinase 1 (Homo sapiens) (UniProt P28482); assay: Inhibition of human MAPK1 assessed as residual activity at 30 uM relative to control
[11] = Clearance in beagle dog at 0.2 mg/kg, iv measured for 24 hrs by LC-MS/MS analysis; format: ADME, organism-based, Canis lupus familiaris; conditions: in vivo
[12] = target: Receptor-type tyrosine-protein kinase FLT3 (Homo sapiens) (UniProt P36888); assay: Inhibition of human FLT3 assessed as residual activity at 30 uM relative to control
Mus musculus [13] = assay: Antiarthritic activity in collagen-induced rheumatoid arthritis DBA/1 mouse model assessed as inhibition rate at 15 mg/kg, po BID administered for 14 days starting from 7 days before immunization to 21 days after immunization and measured on day 41 post immunization; format: functional; conditions: DBA/1, 336 h, time 14 day
[14] = target: Aurora kinase A (Homo sapiens) (UniProt O14965); assay: Inhibition of human Aurora A assessed as residual activity at 30 uM relative to control
Sequence of Aurora kinase A (Homo sapiens) (O14965 whole entry): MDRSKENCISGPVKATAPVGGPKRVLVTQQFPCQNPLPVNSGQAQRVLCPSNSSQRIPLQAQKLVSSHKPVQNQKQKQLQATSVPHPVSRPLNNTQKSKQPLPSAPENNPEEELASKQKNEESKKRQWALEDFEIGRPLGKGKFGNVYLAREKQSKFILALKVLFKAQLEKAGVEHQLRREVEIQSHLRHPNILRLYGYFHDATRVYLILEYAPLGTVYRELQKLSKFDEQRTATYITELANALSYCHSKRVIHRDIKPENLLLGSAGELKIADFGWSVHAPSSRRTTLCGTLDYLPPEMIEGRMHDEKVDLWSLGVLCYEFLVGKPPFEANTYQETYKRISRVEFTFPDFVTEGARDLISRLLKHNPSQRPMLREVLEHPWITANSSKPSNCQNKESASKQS

[15] = target: Misshapen-like kinase 1 (Homo sapiens) (UniProt Q8N4C8); assay: Inhibition of human MINK assessed as residual activity at 30 uM relative to control
[16] = target: MAP kinase-activated protein kinase 2 (Homo sapiens) (UniProt P49137); assay: Inhibition of human MAPKAPK2 assessed as residual activity at 30 uM relative to control
Sequence of MAP kinase-activated protein kinase 2 (Homo sapiens) (P49137 whole entry, looked up): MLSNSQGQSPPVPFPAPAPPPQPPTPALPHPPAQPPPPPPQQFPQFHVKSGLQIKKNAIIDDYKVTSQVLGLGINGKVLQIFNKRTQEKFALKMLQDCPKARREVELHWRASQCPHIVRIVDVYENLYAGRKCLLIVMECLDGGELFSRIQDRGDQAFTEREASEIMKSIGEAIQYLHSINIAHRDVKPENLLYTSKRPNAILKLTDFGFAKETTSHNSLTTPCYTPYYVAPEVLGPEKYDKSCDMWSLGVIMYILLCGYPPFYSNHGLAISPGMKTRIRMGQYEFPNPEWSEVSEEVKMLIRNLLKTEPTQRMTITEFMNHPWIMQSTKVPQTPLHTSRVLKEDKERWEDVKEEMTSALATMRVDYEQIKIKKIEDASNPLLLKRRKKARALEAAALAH

[17] = Elimination half life in Sprague-Dawley rat at 10 mg/kg, po measured for 24 hrs by LC-MS/MS analysis; format: ADME, organism-based; conditions: in vivo, read-out: beta t1/2 (converted)
[18] = target: Hepatocyte growth factor receptor (Homo sapiens) (UniProt P08581); assay: Inhibition of human MET assessed as residual activity at 30 uM relative to control
[19] = target: [Pyruvate dehydrogenase (acetyl-transferring)] kinase isozyme 1, mitochondrial (Homo sapiens) (UniProt Q15118); assay: Inhibition of human PDK1 assessed as residual activity at 30 uM relative to control
Rattus norvegicus [20] = assay: Antiarthritic activity in adjuvant-induced arthritis rat model assessed as clinical score at 1 mg/kg, po administered twice a day for 14 days starting from day 13 to 27 post immunization and measured every 3 days a week; format: functional; conditions: time 14 day
Rattus norvegicus [21] = assay: Antiarthritic activity in adjuvant-induced arthritis rat model assessed as clinical score at 10 mg/kg, po administered twice a day for 14 days starting from day 13 to 27 post immunization and measured every 3 days a week; format: functional; conditions: time 14 day
[22] = target: Platelet-derived growth factor receptor alpha (Homo sapiens) (UniProt P16234); assay: Inhibition of human PDGFRalpha assessed as residual activity at 30 uM relative to control
[23] = target: Mitogen-activated protein kinase 8 (Homo sapiens) (UniProt P45983); assay: Inhibition of human JNK1-alpha1 assessed as residual activity at 30 uM relative to control
Sequence of Mitogen-activated protein kinase 8 (Homo sapiens) (P45983 whole entry): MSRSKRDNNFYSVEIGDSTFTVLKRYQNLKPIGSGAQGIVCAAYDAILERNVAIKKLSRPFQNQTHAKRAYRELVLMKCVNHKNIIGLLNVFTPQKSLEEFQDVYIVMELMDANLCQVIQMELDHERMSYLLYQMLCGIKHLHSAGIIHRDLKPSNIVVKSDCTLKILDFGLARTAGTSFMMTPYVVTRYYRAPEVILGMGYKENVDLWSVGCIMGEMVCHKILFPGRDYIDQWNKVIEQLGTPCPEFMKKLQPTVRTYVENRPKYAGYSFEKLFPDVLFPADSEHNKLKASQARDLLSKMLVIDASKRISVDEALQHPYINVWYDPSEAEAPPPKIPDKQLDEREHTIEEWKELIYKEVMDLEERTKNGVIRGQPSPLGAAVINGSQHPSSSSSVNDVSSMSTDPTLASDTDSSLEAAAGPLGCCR

in vivo [24] = conditions: Sprague-Dawley, rat, po, 10 mg/kg; remark: listed apart in the source
[25] = target: Epidermal growth factor receptor (Homo sapiens) (UniProt P00533); assay: Inhibition of human EGFR assessed as residual activity at 30 uM relative to control
Sequence of Epidermal growth factor receptor (Homo sapiens) (P00533 whole entry): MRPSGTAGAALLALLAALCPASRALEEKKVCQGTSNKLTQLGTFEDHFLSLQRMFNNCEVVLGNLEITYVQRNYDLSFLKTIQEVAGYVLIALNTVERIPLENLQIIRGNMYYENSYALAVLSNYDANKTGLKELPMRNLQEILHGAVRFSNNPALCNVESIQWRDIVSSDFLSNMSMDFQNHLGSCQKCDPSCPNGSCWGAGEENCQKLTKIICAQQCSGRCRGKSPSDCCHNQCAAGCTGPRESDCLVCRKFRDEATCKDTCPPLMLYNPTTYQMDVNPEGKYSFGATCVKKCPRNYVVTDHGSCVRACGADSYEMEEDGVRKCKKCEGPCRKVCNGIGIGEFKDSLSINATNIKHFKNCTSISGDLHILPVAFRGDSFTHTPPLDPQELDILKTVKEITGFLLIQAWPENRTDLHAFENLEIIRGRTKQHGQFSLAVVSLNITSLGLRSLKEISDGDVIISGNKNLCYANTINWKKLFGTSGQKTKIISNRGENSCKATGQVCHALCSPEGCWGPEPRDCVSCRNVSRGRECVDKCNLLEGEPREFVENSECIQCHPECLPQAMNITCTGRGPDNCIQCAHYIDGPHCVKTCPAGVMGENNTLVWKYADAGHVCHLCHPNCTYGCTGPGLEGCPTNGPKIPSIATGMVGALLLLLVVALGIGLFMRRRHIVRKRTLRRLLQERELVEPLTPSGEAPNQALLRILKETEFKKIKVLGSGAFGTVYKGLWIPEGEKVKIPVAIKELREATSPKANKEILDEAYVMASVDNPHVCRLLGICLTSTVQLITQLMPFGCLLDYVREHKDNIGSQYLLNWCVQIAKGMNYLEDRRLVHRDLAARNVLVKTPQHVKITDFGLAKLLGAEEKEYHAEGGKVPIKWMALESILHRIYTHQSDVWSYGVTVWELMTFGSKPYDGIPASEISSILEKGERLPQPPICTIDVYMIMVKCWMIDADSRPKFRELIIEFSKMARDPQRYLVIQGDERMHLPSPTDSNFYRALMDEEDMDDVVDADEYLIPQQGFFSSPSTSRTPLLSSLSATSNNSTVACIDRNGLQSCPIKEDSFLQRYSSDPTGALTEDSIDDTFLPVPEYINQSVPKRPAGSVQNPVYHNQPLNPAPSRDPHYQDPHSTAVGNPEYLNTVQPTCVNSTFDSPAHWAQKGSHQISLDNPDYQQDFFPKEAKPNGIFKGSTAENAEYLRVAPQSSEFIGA

[26] = Toxicity in rat assessed as reduction in body weight at 10 mg/kg/day, po administered via gavage once a day pretreated for 9 weeks prior to co-cage and measured on day 74 relative to control; format: organism-based; parameters: scale not given: the % may be the effect or the level left; conditions: in vivo, 1776 h, time 74 day
[27] = target: Tyrosine-protein kinase Lck (Homo sapiens) (UniProt P06239); assay: Inhibition of human LCK assessed as residual activity at 30 uM relative to control
Sequence of Tyrosine-protein kinase Lck (Homo sapiens) (P06239 2-509 limits assumed): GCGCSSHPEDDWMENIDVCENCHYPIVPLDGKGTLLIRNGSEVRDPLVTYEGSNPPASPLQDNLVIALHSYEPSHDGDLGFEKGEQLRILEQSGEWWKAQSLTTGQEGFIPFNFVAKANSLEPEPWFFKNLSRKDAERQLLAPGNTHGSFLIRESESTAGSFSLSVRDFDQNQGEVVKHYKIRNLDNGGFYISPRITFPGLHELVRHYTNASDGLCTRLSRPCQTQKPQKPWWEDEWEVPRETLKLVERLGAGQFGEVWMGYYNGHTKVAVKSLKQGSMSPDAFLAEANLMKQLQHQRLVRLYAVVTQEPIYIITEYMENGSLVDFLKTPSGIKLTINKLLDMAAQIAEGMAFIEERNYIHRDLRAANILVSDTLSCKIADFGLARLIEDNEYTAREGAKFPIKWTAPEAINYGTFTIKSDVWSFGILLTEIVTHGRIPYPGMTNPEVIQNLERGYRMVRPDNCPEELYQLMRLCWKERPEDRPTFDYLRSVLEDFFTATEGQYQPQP

[28] = target: Serine/threonine-protein kinase Chk1 (Homo sapiens) (UniProt O14757); assay: Inhibition of human CHK1 assessed as residual activity at 30 uM relative to control
Sequence of Serine/threonine-protein kinase Chk1 (Homo sapiens) (O14757 whole entry): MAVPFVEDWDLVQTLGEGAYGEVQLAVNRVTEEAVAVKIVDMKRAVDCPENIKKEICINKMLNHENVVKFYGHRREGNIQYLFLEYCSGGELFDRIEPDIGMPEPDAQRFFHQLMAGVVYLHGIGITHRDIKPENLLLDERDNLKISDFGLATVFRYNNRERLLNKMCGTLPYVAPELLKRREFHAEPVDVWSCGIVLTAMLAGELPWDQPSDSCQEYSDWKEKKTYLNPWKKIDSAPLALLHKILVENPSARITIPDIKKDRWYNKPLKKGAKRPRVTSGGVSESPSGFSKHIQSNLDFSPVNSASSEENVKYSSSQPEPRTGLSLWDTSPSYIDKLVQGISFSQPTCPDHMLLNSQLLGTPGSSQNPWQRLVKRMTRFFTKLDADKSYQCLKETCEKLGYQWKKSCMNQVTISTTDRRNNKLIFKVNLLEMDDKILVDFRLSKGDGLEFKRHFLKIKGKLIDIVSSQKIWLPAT

[29] = Toxicity in rat assessed as reduction in body weight at 10 mg/kg/day, po administered via gavage once a day pretreated for 9 weeks prior to co-cage and measured on day 84 relative to control; format: organism-based; parameters: scale not given: the % may be the effect or the level left; conditions: in vivo, 2016 h, time 84 day
[30] = target: Dual specificity tyrosine-phosphorylation-regulated kinase 3 (Homo sapiens) (UniProt O43781); assay: Inhibition of human DYRK3 assessed as residual activity at 30 uM relative to control
[31] = target: Vascular endothelial growth factor receptor 2 (Homo sapiens) (UniProt P35968); assay: Inhibition of human KDR assessed as residual activity at 30 uM relative to control
[32] = target: Serine/threonine-protein kinase PAK 2 (Homo sapiens) (UniProt Q13177); assay: Inhibition of human PAK2 assessed as residual activity at 30 uM relative to control
Sequence of Serine/threonine-protein kinase PAK 2 (Homo sapiens) (Q13177 whole entry): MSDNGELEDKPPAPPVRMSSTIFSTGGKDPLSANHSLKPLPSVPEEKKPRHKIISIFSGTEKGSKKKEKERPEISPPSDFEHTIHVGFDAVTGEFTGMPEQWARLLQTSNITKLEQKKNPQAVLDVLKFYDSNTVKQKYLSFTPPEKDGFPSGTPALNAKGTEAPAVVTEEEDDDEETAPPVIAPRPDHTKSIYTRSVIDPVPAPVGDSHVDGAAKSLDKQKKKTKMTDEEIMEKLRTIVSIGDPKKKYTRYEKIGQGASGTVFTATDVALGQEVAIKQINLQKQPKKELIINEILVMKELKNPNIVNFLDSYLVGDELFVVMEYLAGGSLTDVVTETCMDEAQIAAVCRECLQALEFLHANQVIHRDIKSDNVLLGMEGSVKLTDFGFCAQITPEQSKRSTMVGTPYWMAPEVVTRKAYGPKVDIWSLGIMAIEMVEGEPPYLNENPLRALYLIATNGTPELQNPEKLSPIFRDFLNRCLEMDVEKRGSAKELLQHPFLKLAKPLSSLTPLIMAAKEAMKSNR

Rattus norvegicus [33] = assay: Antiarthritic activity in adjuvant-induced arthritis rat model assessed as clinical score at 3 mg/kg, po administered twice a day for 14 days starting from day 13 to 27 post immunization and measured every 3 days a week; format: functional; conditions: time 14 day
[34] = target: Cytoplasmic tyrosine-protein kinase BMX (Homo sapiens) (UniProt P51813); assay: Inhibition of human BMX assessed as residual activity at 30 uM relative to control
[35] = Clearance in Sprague-Dawley rat at 1 mg/kg, iv measured for 24 hrs by LC-MS/MS analysis; format: ADME, organism-based; conditions: in vivo
[36] = AUC in beagle dog at 5 mg/kg, po measured for 24 hrs by LC-MS/MS analysis; format: ADME, organism-based, Canis lupus familiaris; parameters: time 24 hrs, dose 5 mg/kg, route po; conditions: in vivo

O=C(Nc1nc2cccc(C3CCC4(CC3)CCN(C(=O)[C@@H]3CC3(F)F)CC4)n2n1)C1CC1
Activity (Mus musculus [1]): 88% | Activity (Mus musculus [2]): 100%

O=C(Nc1nc2cccc(C3CCC4(CC3)CN(C(=O)[C@@H]3CC3(F)F)C4)n2n1)C1CC1
Activity [3]: 101% | Activity [4]: 104% | Activity [5]: 110% | Activity [6]: 106% | Activity (Rattus norvegicus [7]): 2.7 | Activity [8]: 102% | Cmax at 24 h (in vivo [9]): 4960 ng/mL | Activity [10]: 104% | clearance [11]: 5.73 mL/min/kg | Activity [12]: 34% | inhibition in vivo at 15 mg/kg (Mus musculus [13]): 59.9% | Activity [14]: 57% | Activity [15]: 107% | Activity [16]: 112% | half-life [17]: 3.06 h | Activity [18]: 90% | Activity [19]: 80% | Activity (Rattus norvegicus [20]): 5.4 | Activity (Rattus norvegicus [21]): 3.2 | Activity [22]: 102% | Activity [23]: 109% | bioavailability at 24 h (in vivo [24]): 121% | Activity [25]: 94% | Activity [26]: 4.99% | Activity [27]: 74% | Activity [28]: 99% | Activity [29]: 5.53% | Activity [30]: 95% | Activity [31]: 31% | Activity [32]: 93% | Activity (Rattus norvegicus [33]): 3.9 | Activity [34]: 99% | clearance [35]: 10.5 mL/min/kg | AUC at 24 h [36]: 16700 ng·h/mL
